In patent publication US6833456B2, “Indolyl-urea derivatives of thienopyridines useful as antiangiogenic agents, and methods for their use” (Agouron Pharmaceuticals, Inc., priority 2002, dated 2004):
Several values for one entry are separate records, joined by “and”; a condition that tells them apart may be missing. Equal entries are not always repeated.

How the values were obtained:
PDGFRβ = molecular target: T1, PDGFRβ (Homo sapiens, UniProt P09619); experiment: PAE-PDGFRβ phosphorylation in PAE-PDGFRB cells assay; assay type: cell-based; conditions: PAE cells overexpressing human PDGFRβ, PDGF-BB stimulated; read-out: PAE PDGFR autophos IC50
T1 construct: expressed in transfected cells; host or cells: porcine aorta endothelial (PAE) cells
T1 sequence (P09619 33-1106): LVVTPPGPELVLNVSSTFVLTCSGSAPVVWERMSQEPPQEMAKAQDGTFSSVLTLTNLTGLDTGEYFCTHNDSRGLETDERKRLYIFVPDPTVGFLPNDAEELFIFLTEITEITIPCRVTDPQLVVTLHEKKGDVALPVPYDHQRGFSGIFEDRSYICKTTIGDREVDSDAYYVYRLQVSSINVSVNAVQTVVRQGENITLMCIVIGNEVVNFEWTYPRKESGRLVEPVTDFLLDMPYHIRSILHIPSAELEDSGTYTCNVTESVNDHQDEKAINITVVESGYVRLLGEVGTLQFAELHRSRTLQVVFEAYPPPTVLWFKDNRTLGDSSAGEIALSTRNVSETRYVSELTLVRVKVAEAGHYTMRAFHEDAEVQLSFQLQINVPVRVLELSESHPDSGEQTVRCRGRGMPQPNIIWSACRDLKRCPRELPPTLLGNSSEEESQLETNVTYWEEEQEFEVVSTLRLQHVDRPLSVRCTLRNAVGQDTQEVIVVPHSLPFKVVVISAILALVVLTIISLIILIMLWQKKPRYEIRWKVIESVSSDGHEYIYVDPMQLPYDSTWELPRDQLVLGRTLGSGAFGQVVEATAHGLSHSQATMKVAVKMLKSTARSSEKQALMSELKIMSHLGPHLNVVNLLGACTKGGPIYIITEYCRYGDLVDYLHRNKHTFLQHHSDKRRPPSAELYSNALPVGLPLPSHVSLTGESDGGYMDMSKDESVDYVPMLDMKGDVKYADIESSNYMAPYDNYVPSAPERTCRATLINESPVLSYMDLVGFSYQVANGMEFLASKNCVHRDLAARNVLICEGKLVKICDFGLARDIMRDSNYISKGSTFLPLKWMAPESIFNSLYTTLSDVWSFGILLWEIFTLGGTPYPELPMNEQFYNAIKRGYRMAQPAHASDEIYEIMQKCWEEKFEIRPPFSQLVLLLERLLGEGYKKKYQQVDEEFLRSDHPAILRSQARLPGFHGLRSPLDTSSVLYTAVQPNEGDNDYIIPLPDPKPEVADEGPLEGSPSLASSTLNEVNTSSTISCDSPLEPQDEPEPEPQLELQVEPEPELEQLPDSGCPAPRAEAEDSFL
How it was run: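 PAE cells overexpressing human PDGFRβ, serum-starved 16 h (0.1% FBS), compound 1 h at 37° C (0.5% DMSO), then 1 μg/mL PDGF-BB with 2 mM Na3VO4 for 8 min. Receptor captured by anti-PDGFRβ, phosphotyrosine detected by HRP-PY20/TMB at 450 nm; IC50 by four-parameter fit.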

HUVEC = experiment: bFGF HUVEC proliferation; assay type: cell-based, human; conditions: bFGF stimulated HUVEC
Mouse PK assay = assay type: in vivo, B6 female mice; conditions: for AUC / Cmax: female, B6, mouse, plasma; for AUC / Cmax / Mouse Cmin, po: po; for Cmax: read-out: Mouse Cmax, po ng-h/mL
How it was run: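 Plasma levels were measured by HPLC with UV detection after acetonitrile precipitation, using extracted standards, in blood taken up to 4 h (0.5, 1, 2, 4 h) post-dose. Dosing: 50 mg/kg orally or intraperitoneally to two groups of four female B6 mice, vehicle PEG 400:acidified H2O 30:70 suspension.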

[1] = system: human umbilical vein endothelial cells (HUVEC); experiment: HUVEC+VEGF proliferation assay; assay type: cell-based; conditions: VEGF 6 ng/mL, MTT
How it was run: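 Proliferation driven by VEGF (final 6 ng/mL) was quantified by MTT reduction (A595) 72 h after stimulation. Passage 3-4 HUVEC were starved for 24 h in 1% FBS F12K and given test agent 1 h before VEGF, with DMSO at 0.1% final.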

Row | SMILES | IC50 (PDGFRβ) | AUC (Mouse PK assay; 50 mg/kg) [ng·h/mL] | Cmax (Mouse PK assay; 50 mg/kg, p.o., 50 mg/kg) [ng/mL] | Mouse Cmin, po (Mouse PK assay) [ng/mL] | Mouse Cmax, po ng/mL (Mouse PK assay; p.o., 50 mg/kg) [ng/mL] | IC50 (HUVEC; Homo sapiens, HUVEC) [nM] | IC50 ([1]; Homo sapiens, HUVEC, 72 h) [nM] | IC50 (HUVEC) | IC50 ([1]; 72 hours) [nM]
1 | CNC(=O)n1c(C)cc2cc(Nc3ccnc4cc(C(=O)N5CCC[C@@H]5COC)sc34)ccc21 [Example 1b, 5-[2-(2R-Methoxymethyl-pyrrolidine-1-carbonyl)-thieno[3,2-b]pyridin-7-ylamino]-2-methyl-indole-1-carboxylic acid methylamide] | 73 nM and 86 nM | 78 | 24 | 5 |  | 80 | 0.69 |  | 
2 | CNC(=O)n1c(C)cc2cc(Nc3cccc4cc(C(=O)N5C[C@H](OC)C[C@H]5CO)sc34)ccc21 [Example 3f, 5-[2-((2S,4R)-2-Hydroxymethyl-4-methoxy-pyrrolidine-1-carbonyl)-benzo[b]thiophen-7-ylamino]-2-methyl-indole-1-carboxylic acid methylamide] | > 1000 nM | 44 | 24 | 2 |  | 2050 | 3.99 |  | 
3 | COC[C@H]1CCCN1C(=O)c1cc2nccc(Nc3ccc4c(c3)cc(C)n4C(=O)NC3CC3)c2s1 [Example 1d, 5-[2-(2R-Methoxymethyl-pyrrolidine-1-carbonyl)-thieno[3,2-b]pyridin-7-ylamino]-2-methyl-indole-1-carboxylic acid cyclopropylamide] | 42 nM and 45 nM and 74 nM | 5070 | 2820 | 32 |  | 24 |  | 23.4 nM | 0.56
4 | CNC(=O)n1c(C)cc2cc(Nc3ccnc4cc(C(=O)N5CC[C@@H](O)C5)sc34)ccc21 [Example 1n, 5-[2-(3R-Hydroxy-pyrrolidine-1-carbonyl)-thieno[3,2-b]pyridin-7-ylamino]-2-methyl-indole-1-carboxylic acid methylamide] | > 1000 nM and 2600 nM | 12 | 8 | 0 |  | 30.2 | 0.64 | 19.4 nM | 
5 | COC[C@@H]1CCCN1C(=O)c1cc2nccc(Nc3ccc4c(c3)cc(C)n4C(=O)NC3CC3)c2s1 [Example 2c, 5-(2-[(S)-2-(methoxymethyl)pyrrolidine-1-carbonyl]thieno[3,2-b]pyridin-7-ylamino)-2-methylindole-1-carboxylic acid cyclopropylamide] | 84 nM and 105 nM and 87 nM | 6700 | 3700 | 35 |  | 41 | 0.44 | 27 nM and 33 nM and 24 nM and 40 nM | 
6 | CNC(=O)n1c(C)cc2cc(Nc3ccnc4cc(C(=O)N5CCC[C@@H]5CO)sc34)ccc21 [Example 1a, 5-[2-(2R-Hydroxymethyl-pyrrolidine-1-carbonyl)-thieno[3,2-b]pyridin-7-ylamino]-2-methyl-indole-1-carboxylic acid methylamide] | 239 nM | 1020 | 526 | 3 |  | 59 | 0.91 |  | 
7 | Cc1cc2cc(Nc3ccnc4cc(-c5nccn5C)sc34)ccc2n1C(=O)NC1CC1 [Example 2d, 5-(2-[1-methyl-1H-imidazol-2-yl]thieno[3,2-b]pyridin-7-ylamino)-2-methylindole-1-carboxylic acid cyclopropylamide] | 11 nM and 25 nM | 457 | 411 | 0 |  | 34 | 0.15 |  | 
8 | CO[C@@H]1C[C@@H](CO)N(C(=O)c2cc3cccc(Nc4ccc5c(c4)cc(C)n5C(=O)NC4CC4)c3s2)C1 [Example 3g, 5-[2-((2S,4R)-2-Hydroxymethyl-4-methoxy-pyrrolidine-1-carbonyl)-benzo[b]thiophen-7-ylamino]-2-methyl-indole-1-carboxylic acid cyclopropylamide] | > 1000 nM | 46 | 19 | 2 |  | 656 | 0.44 |  | 
9 | Cc1cc2cc(Nc3ccnc4cc(C(=O)N5CCC[C@@H]5CO)sc34)ccc2n1C(=O)NC1CC1 [Example 1c, 5-[2-(2R-Hydroxymethyl-pyrrolidine-1-carbonyl)-thieno[3,2-b]pyridin-7-ylamino]-2-methyl-indole-1-carboxylic acid cyclopropylamide] | > 100 nM and 179 nM | 616 | 317 | 7 |  | 158 | 0.7 |  | 
10 | CCOC(=O)c1csc(-c2cc3nccc(Nc4ccc5c(c4)cc(C)n5C(=O)NC)c3s2)n1 [Example 3c, 2-[7-(2-Methyl-1-methylcarbamoyl-1H-indol-5-ylamino)-thieno[3,2-b]pyridin-2-yl]-thiazole-4-carboxylic acid ethyl ester] | 631 nM |  |  | 0 | 0 | 184 | 2.33 | 262 nM | 

Continued, in another order:

Row | IC50 (PDGFRβ) | AUC (Mouse PK assay; 50 mg/kg) [ng·h/mL] | Cmax (Mouse PK assay; 50 mg/kg, p.o., 50 mg/kg) [ng/mL] | Mouse Cmin, po (Mouse PK assay) [ng/mL] | Mouse Cmax, po ng/mL (Mouse PK assay; p.o., 50 mg/kg) [ng/mL] | SMILES | IC50 (HUVEC; Homo sapiens, HUVEC) [nM] | IC50 ([1]; Homo sapiens, HUVEC, 72 h) [nM] | IC50 (HUVEC) | IC50 ([1]; 72 hours) [nM]
11 | 29 nM and 13 nM | 31300 | 10400 | 1297 |  | C#CCNC(=O)n1c(C)cc2cc(Oc3ccnc4cc(C(=O)N5CCC[C@@H]5CO)sc34)ccc21 [Example 8q, 5-[2-(2R-Hydroxymethyl-pyrrolidine-1-carbonyl)-thieno[3,2-b]pyridin-7-yloxy]-2-methyl-indole-1-carboxylic acid prop-2-ynylamide] | 95 | 0.19 |  | 
12 | 16.7 nM | 5540 | 3790 | 23 |  | CNC(=O)n1c(C)cc2cc(Oc3ccnc4cc(C(=O)N5CCC[C@@H]5COC)sc34)ccc21 [Example 4e, 5-[2-(2R-Methoxymethyl-pyrrolidine-1-carbonyl)-thieno[3,2-b]pyridin-7-yloxy]-2-methyl-indole-1-carboxylic acid methylamide] | 14 | 0.6 |  | 
13 | 36 nM | 9480 | 2320 | 461 |  | CCCNC(=O)n1c(C)cc2cc(Oc3ccnc4cc(C(=O)N5CC[C@H](O)C5)sc34)ccc21 [Example 9i, 5-[2-(3S-Hydroxy-pyrrolidine-1-carbonyl)-thieno[3,2-b]pyridin-7-yloxy]-2-methyl-indole-1-carboxylic acid propylamide] | 5 | 0.37 |  | 
14 | 9 nM | 28500 | 5070 | 825 |  | C#CCNC(=O)n1c(C)cc2cc(Oc3ccnc4cc(C(=O)N5CC[C@@H](O)C5)sc34)ccc21 [Example 4o, 5-[2-(3R-Hydroxy-pyrrolidine-1-carbonyl)-thieno[3,2-b]pyridin-7-yloxy]-2-methyl-indole-1-carboxylic acid prop-2-ynylamide] | 7.9 | 0.071 |  | 
15 | 216 nM | 138 | 56 | 4 |  | Cc1cc2cc(Oc3ccnc4cc(C(=O)N5CC[C@H](O)C5)sc34)ccc2n1C(=O)NCCCO [Example 9l, 5-[2-(3S-Hydroxy-pyrrolidine-1-carbonyl)-thieno[3,2-b]pyridin-7-yloxy]-2-methyl-indole-1-carboxylic acid (3-hydroxy-propyl)-amide] | 37.6 | 0.27 |  | 
16 | 10 nM and 13 nM | 5080 | 3430 | 32 |  | CNC(=O)n1c(C)cc2cc(Oc3ccnc4cc(C(=O)N5CC[C@@H](OC)C5)sc34)ccc21 [Example 4j, 5-[2-(3R-Methoxy-pyrrolidine-1-carbonyl)-thieno[3,2-b]pyridin-7-yloxy]-2-methyl-indole-1-carboxylic acid methylamide] | 2.5 | 0.088 | 4.7 nM | 
